Source: US9012484B2, “Crystal and pharmaceutical preparation containing the same crystal” (Pola Pharma Inc., priority 2012, dated 2015)
Entries after “also recorded” stand apart in the source; their conditions may differ. Each block holds one molecule with its values, some of them ahead of it.

How the values were obtained:
[1] = HPLC measurement of Z and SE isomers produced in the solution after dissolution; type: physicochemical; details: in ethanol solution after dissolution of all crystals
Experimental: (§1) An elution test (stirring condition: 50 rpm) was performed for Raw Material 1 (Crystal of Comparative Example) and Crystal 1 of Example 1 to investigate the elution dynamics. After confirming the dissolution of all crystals, the Z isomer and the SE isomer, which were isomers produced in the solution, were analyzed and quantitatively measured by means of HPLC. In the elution test, 500 mL of anhydrous ethanol was used as the solvent, wherein 1 g of the sample was dissolved at room temperature while stirring, and the time, which was required for the dissolution, was simultaneously measured. Accordingly, it is understood that the time, which is required for the dissolution, is short for Crystal 1, and thus the production of the Z isomer and the SE isomer as the isomers is suppressed in the dissolving step. The condition for HPLC was as follows. Column: CHIRALCEL OD-RH 4.6×150 mm, column temperature: 35° C., mobile phase: mixture solution of methanol/2% aqueous solution of potassium hexafluorophosphate (85:15, v/v), flow rate: 0.6 mL/min., detection: 295 nm).

[2] = Elution test: time required for dissolution in anhydrous ethanol (50 rpm); type: physicochemical; details: 1 g sample in 500 mL anhydrous ethanol, room temperature, stirring 50 rpm
Experimental: as §1, with “step.” for “step. The condition for HPLC was as follows. Column: CHIRALCEL OD-RH 4.6×150 mm, column temperature: 35° C., mobile phase: mixture solution of methanol/2% aqueous solution of potassium hexafluorophosphate (85:15, v/v), flow rate: 0.6 mL/min., detection: 295 nm).”

[3] = State of dissolution in ethanol observed with the naked eye; type: physicochemical
Experimental: The alcohol contents of crystals (Crystals 2, 3) obtained by changing the recrystallization condition of Example 1 were measured, and the state of dissolution in ethanol was also observed with the naked eye. Crystal 2 and Crystal 3 are the crystals of the present invention, wherein the dissolution state was satisfactory as well.
The alcohol content (content of alcohol used in recrystallization) of compositions obtained by changing the recrystallization condition of Example 1 was measured, and the state of dissolution in ethanol was also observed with the naked eye.

[4] = Comparison of state of dissolution in ethanol between crystals; type: physicochemical; details: rank order between crystals
Experimental: The alcohol content of Crystal 4 obtained by changing the recrystallization condition of Example 1 was measured, and the state of dissolution in ethanol was also compared with those of Crystal of Comparative Example of Example 1 and Crystal 3 to compare the solubility.
The alcohol content of Crystal 5 obtained by changing the recrystallization condition of Example 1 was measured, and the state of dissolution in ethanol was also compared with those of Crystal of Comparative Example of Example 1 and Crystal 2 to compare the solubility.
The alcohol content of Crystal 6 obtained by changing the recrystallization condition of Example 1 was measured, and the state of dissolution in ethanol was also compared with those of Crystal of Comparative Example of Example 1, Crystal 4, and Crystal 3 to compare the solubility.
The alcohol content of Crystal 7 obtained by changing the recrystallization condition of Example 1 was measured, and the state of dissolution in ethanol was also compared with those of Crystal of Comparative Example of Example 1 and Crystal 5 to compare the solubility.

[5] = Tablet hardness measurement (PTB311); type: physicochemical; details: tablet 50% lactose / 50% luliconazole, tableting pressure 1 ton/cm^2, 9 mmφ, average of 6 tablets
Experimental: According to the formulation described in the following Table 6, tablet was prepared, and its hardness was measured. PTB311 (Pharma Test GmbH) was used as a measurement apparatus for hardness. Condition of tableting was performed at tableting pressure of 1 ton/cm^2 by utilizing 9 mmφ of a mortar and mallet. Comparative example was prepared by performing same procedures as described above by using comparative crystal. […] Accordingly, it is assumed that a tablet having high hardness can be obtained by utilizing the active ingredient containing alcohol since the active ingredient containing alcohol has strong affinity between the active ingredients.

[6] = test system: Trichomonas vaginalis (clinically isolated strain); experiment: Trichomonas vaginalis culture, cell count on hemocytometer; type: cell-based; details: 5.08 mg crystal in Trichomonas medium F, culture 4 days at 37° C., start 3.93×10^5 cells/mL
Experimental: Effects of an active ingredient containing alcohol were examined by utilizing crystal 10. Crystal, which was obtained by performing recrystallization from a mixture solution of ethyl acetate and n-hexane and which contained no alcohol, was used as a comparative example (comparative crystal). Direct effects of luliconazole were investigated by utilizing Trichomonas vaginalis (clinically isolated strain). Samples were prepared such that 5.08 mg of comparative crystal was added in “Trichomonas medium F” (Fuji Pharma), 5.08 mg of crystal 10 was added in the medium, and 5 μL of water was added in the medium (control). […] of culture solution containing 3.93×10^5 cells/mL of Trichomonas vaginalis was added to each of the samples, followed by culturing for 4 days at 37° C. After that, cells of Trichomonas were counted on a hemocytometer. Between these three samples, significant difference was confirmed at a critical value of not more than 1%.

Compound: N#C/C(=C1/SC[C@@H](c2ccc(Cl)cc2Cl)S1)n1ccnc1 [Crystal 1, luliconazole]
- Amount of generation of SE isomer [1]: 0.06%
- Amount of generation of Z isomer [1]: 0.06%
- Time required until dissolution [2]: 200 min

Compound: N#C/C(=C1/SC[C@@H](c2ccc(Cl)cc2Cl)S1)n1ccnc1 [Crystal 4, luliconazole]
- Solubility order (state of dissolution in ethanol compared) [4]: Crystal of Comparative Example<<Crystal 4=Crystal 6<Crystal 3

Compound: N#C/C(=C1/SC[C@@H](c2ccc(Cl)cc2Cl)S1)n1ccnc1 [Crystal 5, luliconazole]
- Solubility order (state of dissolution in ethanol compared) [4]: Crystal of Comparative Example<<Crystal 2=Crystal 5; also recorded: Crystal of Comparative Example<<Crystal 5=Crystal 7

Compound: N#C/C(=C1/SC[C@@H](c2ccc(Cl)cc2Cl)S1)n1ccnc1 [Crystal 6, luliconazole]
- Solubility order (state of dissolution in ethanol compared) [4]: Crystal of Comparative Example<<Crystal 4=Crystal 6<Crystal 3

Compound: N#C/C(=C1/SC[C@@H](c2ccc(Cl)cc2Cl)S1)n1ccnc1 [Crystal 7, luliconazole]
- Solubility order (state of dissolution in ethanol compared) [4]: Crystal of Comparative Example<<Crystal 5=Crystal 7

The next lines start with results.

- Solubility (state of dissolution in ethanol) [3]: satisfactory
Compound: N#C/C(=C1/SC[C@@H](c2ccc(Cl)cc2Cl)S1)n1ccnc1 [Crystal 2, luliconazole]
- Solubility order (state of dissolution in ethanol compared) [4]: Crystal of Comparative Example<<Crystal 2=Crystal 5

- Solubility (state of dissolution in ethanol) [3]: satisfactory
Compound: N#C/C(=C1/SC[C@@H](c2ccc(Cl)cc2Cl)S1)n1ccnc1 [Crystal 3, luliconazole]
- Solubility order (state of dissolution in ethanol compared) [4]: Crystal of Comparative Example<<Crystal 4=Crystal 6<Crystal 3

- Solubility (state of dissolution in ethanol) [3]: satisfactory
- Hardness [5]: 73.7 ± 4.2 N
Compound: N#C/C(=C1/SC[C@@H](c2ccc(Cl)cc2Cl)S1)n1ccnc1 [Crystal 10, luliconazole]
- Cells of Trichomonas counted, Average [6]: 256000

- Amount of generation of SE isomer [1]: 0.09%
- Amount of generation of Z isomer [1]: 0.13%
- Hardness ([5]; listed as Comparative crystal): 29.1 ± 3.0 N
- Solubility order (state of dissolution in ethanol compared) ([4]; listed as Comparative Example): Comparative Example<<Crystal 4<Crystal 3
- Time required until dissolution [2]: 300 min
Compound: N#C/C(=C1/SC[C@@H](c2ccc(Cl)cc2Cl)S1)n1ccnc1 [Crystal of Comp. Ex., luliconazole, reference compound]
- Cells of Trichomonas counted, Average ([6]; listed as Comparative crystal): 376000
- Solubility order (state of dissolution in ethanol compared) ([4]; listed as Crystal of Comparative Example): Crystal of Comparative Example<<Crystal 2=Crystal 5; also recorded: Crystal of Comparative Example<<Crystal 4=Crystal 6<Crystal 3; also recorded: Crystal of Comparative Example<<Crystal 5=Crystal 7
